{"source": "patent US20040127403A1", "about": "“Methods for treating and preventing Gram-positive bacteremias” (priority 2002, published 2004)", "key": {"E. faecium UA210": {"test_system": "E. faecium UA210", "experiment": "MIC, NCCLS broth microdilution", "format": "cell-based", "conditions": "Enterococcus faecium, UA210, E. faecium UA210", "procedure,_shortened": "(§1)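 Each MIC was measured in two broths, CAMHB and TSB, using the NCCLS microdilution procedure; 0.02% bovine serum albumin was added with ramoplanin.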"}, "S. aureus ATCC35556 MRSA": {"test_system": "S. aureus ATCC35556 MRSA", "experiment": "MIC, NCCLS broth microdilution", "format": "cell-based", "conditions": "Staphylococcus aureus", "procedure,_shortened": "as §1"}, "S. epidermidis ATCC35983": {"test_system": "S. epidermidis ATCC35983", "experiment": "MIC, NCCLS broth microdilution", "format": "cell-based", "conditions": "Staphylococcus epidermidis, ATCC35983, S. epidermidis ATCC35983", "procedure,_shortened": "as §1"}, "S. epidermidis ATCC18972": {"test_system": "S. epidermidis ATCC18972", "experiment": "MIC, NCCLS broth microdilution", "format": "cell-based", "conditions": "Staphylococcus epidermidis, ATCC18972, S. epidermidis ATCC18972"}, "S. epidermidis ATCC35984": {"test_system": "S. epidermidis ATCC35984", "experiment": "MIC, NCCLS broth microdilution", "format": "cell-based", "conditions": "Staphylococcus epidermidis, ATCC35984, S. epidermidis ATCC35984"}, "[1]": {"test_system": "VanA strain of E. faecium (VRE)", "experiment": "Suppression of VRE in a mouse colonization model", "format": "in vivo, Mice", "procedure": "Mice were colonized with a clinical isolate VanA strain of E. faecium (VRE) isolated from a septicemic patient. A single inoculation of 5×10^8 cfu VRE by oral gavage (Day 0) was followed by treatment with vancomycin in the drinking water to maintain colonization. On day 22, each group received the same vancomycin-containing drinking water. One group also received ramoplanin (100 μg/mL) in its drinking water. The dose of ramoplanin per day was estimated to be 15 mg/kg, based on a standard water consumption of 150 mL/kg/day. Treatment with ramoplanin was discontinued on Day 29, and vancomycin treatment was discontinued on Day 36. The control group consisted of five mice, while the ramoplanin group consisted of four mice."}, "E. faecium A 6350 Line-R": {"test_system": "E. faecium A 6350 Line-R", "experiment": "MIC, NCCLS broth microdilution", "format": "cell-based", "procedure,_shortened": "as §1"}, "[2]": {"conditions": "Day 22, prior to ramoplanin therapy, control group, 25 mg/kg/day vancomycin"}, "[3]": {"conditions": "Day 22, prior to ramoplanin therapy, ramoplanin group, on 25 mg/kg/day vancomycin"}, "[4]": {"conditions": "Day 29, control group, 25 mg/kg/day vancomycin"}, "[5]": {"conditions": "Day 36, 7 days after completion of ramoplanin therapy, former ramoplanin group, on 25 mg/kg/day vancomycin"}, "[6]": {"conditions": "Day 36, control group, 25 mg/kg/day vancomycin"}}, "note": "Read-outs that look alike come from different tables or passages of the source.", "data": [{"compound": "COc1cccc(OC)c1C(=O)N[C@@H]1C(=O)N2[C@@H]1SC(C)(C)[C@@H]2C(=O)O", "note": "[Meth., methicillin]", "values": [{"measurement": "MIC", "setting": "E. faecium UA210; Table 6, 1st, read-out: MIC", "result": "> 16", "unit": "µg/mL"}, {"measurement": "MIC", "setting": "E. faecium UA210; Table 6, 2nd, read-out: MIC", "result": "> 64", "unit": "µg/mL"}, {"measurement": "MIC", "setting": "S. aureus ATCC35556 MRSA; Table 6, 1st, read-out: MIC", "result": 1, "unit": "µg/mL"}, {"measurement": "MIC", "setting": "S. aureus ATCC35556 MRSA; Table 6, 2nd, read-out: MIC", "result": 1, "unit": "µg/mL"}, {"measurement": "MIC", "setting": "S. epidermidis ATCC35983; Table 6, 1st, read-out: MIC", "result": "> 16", "unit": "µg/mL"}, {"measurement": "MIC", "setting": "S. epidermidis ATCC35983; Table 6, 2nd, read-out: MIC", "result": 64, "unit": "µg/mL"}, {"measurement": "MIC", "setting": "S. epidermidis ATCC18972; Table 6, 1st, read-out: MIC", "result": "> 16", "unit": "µg/mL"}, {"measurement": "MIC", "setting": "S. epidermidis ATCC18972; Table 6, 2nd, read-out: MIC", "result": 64, "unit": "µg/mL"}, {"measurement": "MIC", "setting": "S. epidermidis ATCC35984; Table 6, 1st, read-out: MIC", "result": "> 16", "unit": "µg/mL"}, {"measurement": "MIC", "setting": "S. epidermidis ATCC35984; Table 6, 2nd, read-out: MIC", "result": "> 64", "unit": "µg/mL"}]}, {"compound": "CN[C@H](CC(C)C)C(=O)N[C@H]1C(=O)N[C@@H](CC(N)=O)C(=O)N[C@H]2C(=O)N[C@H]3C(=O)N[C@H](C(=O)N[C@H](C(=O)O)c4cc(O)cc(O)c4-c4cc3ccc4O)[C@H](O)c3ccc(c(Cl)c3)Oc3cc2cc(c3O[C@@H]2O[C@H](CO)[C@@H](O)[C@H](O)[C@H]2O[C@H]2C[C@](C)(N)[C@H](O)[C@H](C)O2)Oc2ccc(cc2Cl)[C@H]1O", "note": "[Vancomycin]", "values": [{"measurement": "% Mice with VRE", "setting": "[1]; [2]", "result": 100, "unit": "%"}, {"measurement": "Enterococci in faeces: Total Enterococci", "setting": "[1]; [2]", "result": 9.6, "unit": "log 10 cfu/g faeces"}, {"measurement": "Enterococci in faeces: VRE", "setting": "[1]; [2]", "result": 9.7, "unit": "log 10 cfu/g faeces"}, {"measurement": "% Mice with VRE", "setting": "[1]; [3]", "result": 100, "unit": "%"}, {"measurement": "Enterococci in faeces: Total Enterococci", "setting": "[1]; [3]", "result": 9.8, "unit": "log 10 cfu/g faeces"}, {"measurement": "Enterococci in faeces: VRE", "setting": "[1]; [3]", "result": 9.7, "unit": "log 10 cfu/g faeces"}, {"measurement": "% Mice with VRE", "setting": "[1]; [4]", "result": 100, "unit": "%"}, {"measurement": "Enterococci in faeces: Total Enterococci", "setting": "[1]; [4]", "result": 9.3, "unit": "log 10 cfu/g faeces"}, {"measurement": "Enterococci in faeces: VRE", "setting": "[1]; [4]", "result": 9.4, "unit": "log 10 cfu/g faeces"}, {"measurement": "% Mice with VRE", "setting": "[1]; [5]", "result": 100, "unit": "%"}, {"measurement": "Enterococci in faeces: Total Enterococci", "setting": "[1]; [5]", "result": 8.6, "unit": "log 10 cfu/g faeces"}, {"measurement": "Enterococci in faeces: VRE", "setting": "[1]; [5]", "result": 8.7, "unit": "log 10 cfu/g faeces"}, {"measurement": "% Mice with VRE", "setting": "[1]; [6]", "result": 100, "unit": "%"}, {"measurement": "Enterococci in faeces: Total Enterococci", "setting": "[1]; [6]", "result": 9.6, "unit": "log 10 cfu/g faeces"}, {"measurement": "Enterococci in faeces: VRE", "setting": "[1]; [6]", "result": 9.3, "unit": "log 10 cfu/g faeces"}, {"measurement": "MIC", "setting": "E. faecium A 6350 Line-R; E. faecium A 6350 Line-R (Table 2), TSB", "result": ">16, >16 μg/ml"}, {"measurement": "MIC", "setting": "E. faecium A 6350 Line-R; Enterococcus faecium, A6350LINER", "result": "> 16", "unit": "µg/mL"}, {"measurement": "MIC", "setting": "E. faecium UA210; CAMHB", "result": "> 16", "unit": "µg/mL"}, {"measurement": "MIC", "setting": "E. faecium UA210; TSB", "result": "> 16", "unit": "µg/mL"}, {"measurement": "MIC", "setting": "E. faecium UA210; Table 6, 1st", "result": "> 16", "unit": "µg/mL"}, {"measurement": "MIC", "setting": "E. faecium UA210; Table 6, 2nd", "result": "> 64", "unit": "µg/mL"}, {"measurement": "MIC", "setting": "S. aureus ATCC35556 MRSA; CAMHB", "result": 1, "unit": "µg/mL"}, {"measurement": "MIC", "setting": "S. aureus ATCC35556 MRSA; TSB", "result": "> 16", "unit": "µg/mL"}, {"measurement": "MIC", "setting": "S. aureus ATCC35556 MRSA; Table 6, 1st", "result": 1, "unit": "µg/mL"}, {"measurement": "MIC", "setting": "S. aureus ATCC35556 MRSA; Table 6, 2nd", "result": 1, "unit": "µg/mL"}, {"measurement": "MIC", "setting": "S. epidermidis ATCC35983; CAMHB", "result": 4, "unit": "µg/mL"}, {"measurement": "MIC", "setting": "S. epidermidis ATCC35983; TSB", "result": 4, "unit": "µg/mL"}, {"measurement": "MIC", "setting": "S. epidermidis ATCC35983; Table 6, 1st", "result": 2, "unit": "µg/mL"}, {"measurement": "MIC", "setting": "S. epidermidis ATCC35983; Table 6, 2nd", "result": 2, "unit": "µg/mL"}, {"measurement": "MIC", "setting": "S. epidermidis ATCC18972; CAMHB", "result": 4, "unit": "µg/mL"}, {"measurement": "MIC", "setting": "S. epidermidis ATCC18972; TSB", "result": 4, "unit": "µg/mL"}, {"measurement": "MIC", "setting": "S. epidermidis ATCC18972; Table 6, 1st", "result": 2, "unit": "µg/mL"}, {"measurement": "MIC", "setting": "S. epidermidis ATCC18972; Table 6, 2nd", "result": 2, "unit": "µg/mL"}, {"measurement": "MIC", "setting": "S. epidermidis ATCC35984; CAMHB", "result": 4, "unit": "µg/mL"}, {"measurement": "MIC", "setting": "S. epidermidis ATCC35984; TSB", "result": 4, "unit": "µg/mL"}, {"measurement": "MIC", "setting": "S. epidermidis ATCC35984; Table 6, 1st", "result": 2, "unit": "µg/mL"}, {"measurement": "MIC", "setting": "S. epidermidis ATCC35984; Table 6, 2nd", "result": 2, "unit": "µg/mL"}]}, {"compound": "CC(=O)NC[C@H]1CN(c2ccc(N3CCOCC3)c(F)c2)C(=O)O1", "note": "[Linezolid]", "values": [{"measurement": "MIC", "setting": "E. faecium UA210; Table 6, 1st, read-out: MIC", "result": 4, "unit": "µg/mL"}, {"measurement": "MIC", "setting": "E. faecium UA210; Table 6, 2nd, read-out: MIC", "result": 2, "unit": "µg/mL"}, {"measurement": "MIC", "setting": "S. aureus ATCC35556 MRSA; Table 6, 1st, read-out: MIC", "result": 4, "unit": "µg/mL"}, {"measurement": "MIC", "setting": "S. aureus ATCC35556 MRSA; Table 6, 2nd, read-out: MIC", "result": 2, "unit": "µg/mL"}, {"measurement": "MIC", "setting": "S. epidermidis ATCC35983; Table 6, 1st, read-out: MIC", "result": 2, "unit": "µg/mL"}, {"measurement": "MIC", "setting": "S. epidermidis ATCC35983; Table 6, 2nd, read-out: MIC", "result": 2, "unit": "µg/mL"}, {"measurement": "MIC", "setting": "S. epidermidis ATCC18972; Table 6, 1st, read-out: MIC", "result": 2, "unit": "µg/mL"}, {"measurement": "MIC", "setting": "S. epidermidis ATCC18972; Table 6, 2nd, read-out: MIC", "result": 1, "unit": "µg/mL"}, {"measurement": "MIC", "setting": "S. epidermidis ATCC35984; Table 6, 1st, read-out: MIC", "result": 4, "unit": "µg/mL"}, {"measurement": "MIC", "setting": "S. epidermidis ATCC35984; Table 6, 2nd, read-out: MIC", "result": 2, "unit": "µg/mL"}]}]}
